The values that follow come from patent publication US7629356B2, “Substituted pyrrolo[3,4-b]pyridinamines and pharmaceutical compositions” (AstraZeneca AB, priority 2007, dated 2009).

The structures appear in SMILES notation.

By Ki is commonly meant the equilibrium dissociation constant of an inhibitor or competing ligand from its target.

The target in the assay is T1, human β-Secretase (soluble part AA1-AA460, sBACE-Fc) (Homo sapiens, UniProt P56817).
T1 construct: The soluble part of the human β-Secretase (AA1 -AA460) was cloned; Fc domain of IgG1; made in house
T1 sequence (P56817 22-460): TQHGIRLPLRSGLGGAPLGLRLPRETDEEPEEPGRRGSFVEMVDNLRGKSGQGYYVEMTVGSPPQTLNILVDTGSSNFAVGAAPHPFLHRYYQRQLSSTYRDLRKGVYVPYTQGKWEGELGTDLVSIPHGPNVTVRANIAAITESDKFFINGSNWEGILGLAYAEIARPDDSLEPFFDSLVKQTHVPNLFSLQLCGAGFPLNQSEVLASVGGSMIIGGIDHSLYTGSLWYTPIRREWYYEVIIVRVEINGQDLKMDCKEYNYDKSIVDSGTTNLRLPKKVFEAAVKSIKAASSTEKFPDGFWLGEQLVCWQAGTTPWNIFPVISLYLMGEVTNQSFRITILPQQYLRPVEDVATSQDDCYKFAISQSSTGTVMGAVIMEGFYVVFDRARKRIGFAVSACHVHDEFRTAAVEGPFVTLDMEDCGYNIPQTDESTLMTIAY
The assay can be described thus: TR-FRET assay. The class given is biochemical. The settings on record: substrate (Europium)CEVNLDAEFK(Qsy7) 100 nM, pH 4.5, 15 min at RT. The procedure:
The enzyme used in the IGEN Cleavage-, Fluorescent-, TR-FRET- and BiaCore assays is described as follows:
The soluble part of the human β-Secretase (AA1 -AA460) was cloned into the ASP2-Fc10-1-IRES-GFP-neoK mammalian expression vector. The gene was fused to the Fc domain of IgG1 (affinity tag) and stably cloned into HEK 293 cells. Purified sBACE-Fc is stored in Tris buffer, pH 9.2 and has a purity of 95%.
Enzyme was diluted to 6 μg/mL and the substrate (Europium)CEVNLDAEFK(Qsy7) to 200 nM in reaction buffer (NaAcetate, chaps, triton x-100, EDTA pH 4.5). Compounds were diluted to the desired concentration in dimethyl sulfoxide (final dimethyl sulfoxide concentration in assay is 5%). The assay was done in a Costar 384 well round bottom, low volume, non-binding surface plate (Corning #3676). Enzyme (9 μL) and 1 μL of compound in dimethyl sulfoxide was added to the plate, mixed and pre-incubated for 10 min. Substrate (10 μL) was added and the reaction proceeded in the dark for 15 min at RT. The reaction was stopped with the addition of 7 μL NaAcetate, pH 9. The fluorescence of the product was measured on a Victor II plate reader with an excitation wavelength of 340 nm and an emission wavelength of 615 nm. The final concentration of the enzyme was 2.7 μg/ml and the final concentration of the substrate was 100 nM (Km of 290 nM). The dimethyl sulfoxide control defined the 100% activity level and 0% activity was defined by exclusion of the enzyme (using reaction buffer instead).
For `COc1ccc(C2(c3cccc(-c4cncnc4)c3)N=C(N)c3ncccc32)cc1` (stereo not drawn) [Example 5, 5-(4-Methoxyphenyl)-5-(3-pyrimidin-5-ylphenyl)-5H-pyrrolo[3,4-b]pyridin-7-amine], the Ki was 282 nM.

With `COc1ccc(C2(c3cccc(-c4cccnc4F)c3)N=C(N)c3ncccc32)cc1` (stereo not drawn) [Example 6, 5-[3-(2-Fluoropyridin-3-yl)phenyl]-5-(4-methoxyphenyl)-5H-pyrrolo[3,4-b]pyridin-7-amine], the Ki is 275 nM.

With `COc1ccc(C2(c3cccc(-c4cncc(OC)c4)c3)N=C(N)c3ncccc32)cc1` (stereo not drawn) [Example 7, 5-(4-Methoxyphenyl)-5-[3-(5-methoxypyridin-3-yl)phenyl]-5H-pyrrolo[3,4-b]pyridin-7-amine], the Ki was 178 nM.

`COc1ccc(C2(c3cccc(-c4cccnc4)c3)N=C(N)c3ncccc32)cc1` (stereo not drawn) [Example 8, 5-(4-Methoxyphenyl)-5-(3-pyridin-3-ylphenyl)-5H-pyrrolo[3,4-b]pyridin-7-amine] showed an inhibition constant (Ki) of 339 nM.

With `NC1=NC(c2ccncc2)(c2cccc(-c3cccnc3F)c2)c2cccnc21` (stereo not drawn) [Example 9, 5-[3-(2-Fluoropyridin-3-yl)phenyl]-5-pyridin-4-yl-5H-pyrrolo[3,4-b]pyridin-7-amine], affinity was put at a Ki of 295 nM.

In turn, `NC1=NC(c2ccncc2)(c2cccc(-c3cncnc3)c2)c2cccnc21` (stereo not drawn) [Example 10, 5-Pyridin-4-yl-5-(3-pyrimidin-5-ylphenyl)-5H-pyrrolo[3,4-b]pyridin-7-amine] returned a Ki of 324 nM.

`COc1ccc(F)c(-c2cccc(C3(c4ccncc4)N=C(N)c4ncccc43)c2)c1` (stereo not drawn) [Example 11, 5-(2′-Fluoro-5-methoxybiphenyl-3-yl)-5-pyridin-4-yl-5H-pyrrolo[3,4-b]pyridin-7-amine 0.25 acetate] yielded a Ki of 219 nM.

Molecule `COc1cccc(-c2cccc(C3(c4ccncc4)N=C(N)c4ncccc43)c2)c1F` (stereo not drawn) [Example 12, 5-(2′-Fluoro-3′-methoxybiphenyl-3-yl)-5-pyridin-4-yl-5H-pyrrolo[3,4-b]pyridin-7-amine 0.5 acetate] displayed a Ki of 398 nM.

As to `NC1=NC(c2ccncc2)(c2cccc(-c3cncnc3)c2)c2cnccc21` (stereo not drawn) [Example 16, 3-Pyridin-4-yl-3-(3-pyrimidin-5-ylphenyl)-3H-pyrrolo[3,4-c]pyridin-1-amine], the affinity corresponds to a Ki of 91 nM.

With `NC1=NC(c2ccncc2)(c2cccc(-c3cccnc3F)c2)c2cnccc21` (stereo not drawn) [Example 17, 3-[3-(2-Fluoropyridin-3-yl)phenyl]-3-pyridin-4-yl-3H-pyrrolo[3,4-c]pyridin-1-amine], the Ki worked out at 62 nM.

On to `NC1=NC(c2ccncc2)(c2cccc(-c3cccnc3F)c2)c2ncccc21` (stereo not drawn) [Example 21, 7-[3-(2-Fluoropyridin-3-yl)phenyl]-7-pyridin-4-yl-7H-pyrrolo[3,4-b]pyridin-5-amine], for which the Ki was found to be 93 nM.

Consider `NC1=NC(c2ccncc2)(c2cccc(-c3cncnc3)c2)c2ncccc21` (stereo not drawn) [Example 22, 7-Pyridin-4-yl-7-(3-pyrimidin-5-ylphenyl)-7H-pyrrolo[3,4-b]pyridin-5-amine], for which the Ki is 170 nM.
